{
  "source": "paper PMC3130785",
  "about": "“Small Compound 6-O-Angeloylplenolin Induces Mitotic Arrest and Exhibits Therapeutic Potentials in Multiple Myeloma” (PLoS ONE, 2011)",
  "key": {"MM.1S cells [1]": {"tested_on": "MM.1S cells", "experiment": "MTT assay, 6-OAP combined with Dox, Dex or BOR", "assay_type": "cell-based, human", "conditions": "48 h, 6-OAP 5 µM, in particular Dox and BOR", "experimental": "U266, RPMI 8226 cells (1×10^4), primary CD138+ cells, PBMCs (5×10^4), and BMSCs (1×10^4) were cultured in 96-well dishes and incubated without or with 6-OAP at indicated concentration for 48 h. MM.1S and MM.1R cells (2×10^4) were seeded into 96-well dishes and pre-cultured for 24 h, then treated with 6-OAP for 48 h. Cell proliferation was determined by MTT assay. Cell viability was estimated by trypan blue dye exclusion.\nFigure 4 6-OAP enhances cytotoxicity of Dox, Dex and BOR to MM cells. (A through C) MM.1S cells were treated for 48 h with Dox (A), Dex (B) or BOR (C) in the presence or absence of 6-OAP at 5 µM. MTT assay was used to test the proliferation of MM.1S cells. (D) MM.1R cells were treated for 48 h with Dex in the presence or absence of 6-OAP at 7.5 µM. MTT assay was used to test the proliferation of MM.1R cells. *p<.001,** p<.05. (E) MM.1S cells were cultured with control media (con), 6-OAP (O, 5 µM), BOR (B, 3 nM), or 6-OAP (5 µM) plus BOR (3 nM) (OB) for indicated time points. Cells were then lysed and subjected to Western blotting using indicated antibodies. CF, cleavage fragment."}, "MM.1S cells [2]": {"tested_on": "MM.1S cells", "experiment": "Cell cycle distribution by flow cytometry", "assay_type": "cell-based, human", "conditions": "5 to 10 µM for 48 h", "experimental": "(§1) MM cells were synchronized to G1/S boundary by a double-thymidine block. Briefly, cells were treated with 2 mM thymidine (Sigma-Aldrich) for 16 h, released into fresh medium for 9 h and subjected again to thymidine for another 16 h and then exposed to 6-OAP for indicated time points. Cells were harvested, fixed with 70% cold ethanol, incubated with RNase, and stained with propidium iodide (PI) (Sigma-Aldrich). Cell cycle distribution was analyzed by flow cytometry and CellQuest software (Becton Dickson).\n(§2) Figure 2 6-OAP induces mitotic arrest in MM cells. (A) U266 cells were treated with 6-OAP at 7.5 µM for 0, 24, 48 h and imaged by Leica DMI 400B microscope. (B) U266 cells were treated with 6-OAP at indicated concentrations for 48 h. Cell cycle distribution was determined by flow cytometry. (C) MM.1S cells were treated with 5 µM 6-OAP for 48 h. Cell cycle distribution was determined by flow cytometry. (D) U266 cells were treated with 6-OAP at 5 to 7.5 µM for 24 h (left panel) or at 7.5 µM for 12 to 24 h (right panel). For immunofluorescence analysis of microtubules, cells was stained with an anti-α-tubulin antibody to visualize microtubules (green) and DAPI to counter stained DNA (blue) and observed by confocal microscopy. (E) Indicated cells were treated with 6-OAP at indicated concentration for 24 h, lysed, and Western blotting was performed using antibodies indicated. […]"}, "U266 cells [3]": {"tested_on": "U266 cells", "experiment": "Cell cycle distribution by flow cytometry", "assay_type": "cell-based, human", "conditions": "5 to 10 µM for 48 h", "experimental": "as §1, §2"}, "[4]": {"tested_on": "human HL-60 leukemia cells", "parameters": "method as in PMID 18077129", "conditions": "mitochondrial/caspase and NF-κB pathway; cited from earlier work"}, "U266 cells [5]": {"tested_on": "U266 cells", "experiment": "Immunofluorescence analysis of microtubules (anti-α-tubulin)", "assay_type": "cell-based, human", "conditions": "5 to 7.5 µM for 24 h or 7.5 µM for 12 to 24 h", "experimental": "Both control and 6-OAP-treated MM cells were plated on glass slides by centrifugation using a cytospin, air-dried for 5 min at room temperature, and fixed with 4% paraformaldehyde for 15 min. After a brief washing in PBS with 100 mM glycine, slides were blocked with 5% bovine serum albumin (BSA; Sigma) and 0.3% Triton X-100 in PBS for 30 min at room temperature. Microtubules were detected with indicated antibodies diluted 1∶50 in 5% BSA in PBS overnight at 4°C and FITC or rhodamine-conjugated secondary antibodies (Santa Cruz) diluted 1∶200 in 5% BSA in PBS for 1.5 h at 37°C. Cells were then washed three times with PBS. Nuclei were stained with DAPI (Sigma).\nas §2, with “microscopy.” for “microscopy. (E) Indicated cells were treated with 6-OAP at indicated concentration for 24 h, lysed, and Western blotting was performed using antibodies indicated.”"}},
  "data": [
    {"molecule": "CC=C(C)C(=O)OC1C2C(CC(C)C3C=CC(=O)C31C)OC(=O)C2C", "note": "(centres unmarked) [6-OAP, 6-O-angeloylplenolin]", "values": [
      {"measurement": "effect on cytotoxicity of Dox, Dex, BOR", "setting": "MM.1S cells [1]", "value": "significantly enhanced cytotoxicity"},
      {"measurement": "cells in G2/M phase", "setting": "MM.1S cells [2]", "value": "accumulation"},
      {"measurement": "cells in G2/M phase", "setting": "U266 cells [3]", "value": "accumulation"},
      {"measurement": "apoptosis", "setting": "[4]", "value": "induce apoptosis"},
      {"measurement": "cellular microtubule network / mitotic spindle", "setting": "U266 cells [5]", "value": "cellular microtubules assembled to form mitotic spindle"}
    ]}
  ]
}
